Data from US20260207754A1, “MET PROTEIN DEGRADATION INDUCING COMPOUND” (ONCOZEN CO., LTD., priority 2022, published 2026).

Assays:
Format in all cases: cell-based
H596 cells = assay: Cell viability assay (CCK8); details: three days treatment
Procedure: (§1) This experiment involves treating cells with each of the compounds prepared in Examples 1 to 11, and then observing changes in cell cytotoxicity and cell count. The IC50 values, derived from the changes in cell count, can be used to assess the cancer cell growth inhibition and anti-cancer effects of the compound of the present invention.
(§2) Cells (H596 or H1437 cells) were seeded in a 96-well plate at 3×10^3 cells per well and then cultured for more than 12 hours. After removing the media, each well was treated with 200 μl of the respective diluted compounds prepared in Examples 1 to 11. Three days later, the media was removed, and each well was treated with 10 μl of CCK8 reagent+90 μl of media. After 3-4 hours of reaction, the absorbance was measured using an ELISA reader at a wavelength of 450 nm.

H1437 cells = assay: Cell viability assay (CCK8); details: three days treatment
Procedure: as §1, §2

c-MET (total form) [1] = assay: Target protein degradation assay (Western blot); details: for c-MET degradation H596: H596 cells, Western blot, standard concentration and time 5 μM, 72 hours; for degradation of the target MET protein: H596 or H1437 cells, summary of Table 3
Procedure: This experiment assessed the tendency and extent of degradation of the target protein c-MET (total form) in cells treated with each of the compounds prepared in Examples 1 to 11.
(§3) Cells (H596 or H1437 cells) were seeded in Φ60 or Φ100 culture dishes to reach 5×10^5 or 1×10^6 cells, and then cultured for more than 12 hours. After removing the media, the cells were treated with each respective compound prepared in Examples 1 to 11 at various conditions-concentrations (0, 2.5, 5, 10 μM), time (0, 6, 8, 24, 48, 72 hours), and standard concentration and time (5 μM, 72 hours) for all compounds. The cells were then harvested, lysed using RIPA buffer, and centrifuged (4° C., 13000 rpm, 15 min), to collect the supernatant in a new tube. Protein quantification was performed using the Bradford Assay, and samples were prepared for loading by boiling at 95° C. Western blotting was performed. The samples were loaded onto an SDS polyacrylamide gel (8% concentration). Electrophoresis was conducted at 80V, and then switched to 100-120V (when the loaded sample moves from the stacking gel to the running gel). After electrophoresis, the polyacrylamide gel was transferred onto the membrane (using transfer buffer diluted at 10× transfer buffer:methanol:D.W=1:2:7 ratio, cold, for 100V, 1 hour or 80V, 2 hours). The membrane was blocked with 5% skim milk for 30 minutes and washed with PBS-T (phosphate-buffered saline with Tween 20) buffer. The primary antibody was diluted in 5% BSA+NaN3 solution and reacted with the membrane for over 12 hours, followed by washing with PBS-T and reaction with 5% skim milk+secondary antibody for 1 hour and 30 minutes. After washing with PBS-T, the ECL solution was reacted with the membrane, and the bands were detected using an imaging device to confirm the degradation of the target protein c-MET.

c-MET (total form) [2] = assay: Target protein degradation assay (Western blot); details: H1437 cells, standard concentration and time 5 μM, 72 hours
Procedure: as §3, with “After removing the media, the cells were treated with each respective compound prepared in Examples 1 to 11 at various conditions-concentrations (0, 2.5, 5, 10 μM), time (0, 6, 8, 24, 48, 72 hours), and standard concentration and time (5 μM, 72 hours) for all compounds.” left out

Row | IC50 (H596 cells; Homo sapiens, NCI-H596, 72 h) | IC50 (H1437 cells; Homo sapiens, NCI-H1437, 72 h) | IC50 (H596 cells) | IC50 (H1437 cells) | Compound | c-MET degradation H596 (c-MET (total form) [1]) | c-MET degradation H1437 (c-MET (total form) [2]) | degradation of the target MET protein (c-MET (total form) [1])
1 | 2.59 µM | 4.06 µM | – | – | CC(C)c1cc(C(=O)N(C)Cc2ccc(C(=O)NCCOCCOC(=O)N3CCC(n4cc(-c5cnc(N)c(O[C@@H](C)c6c(Cl)ccc(F)c6Cl)c5)cn4)CC3)cc2)c(O)cc1O [OZD-MET 02] | 1 (50% < degradation: 1) | 1 (50% < degradation: 1) | –
2 | 3.43 µM | 3.21 µM | – | – | CC(C)c1cc(C(=O)N(C)Cc2ccc(C(=O)NCCCCC(=O)Nc3ccc4nccc(Oc5ccc(NC(=O)C6(C(=O)Nc7ccc(F)cc7)CC6)cc5)c4c3)cc2)c(O)cc1O [OZD-MET 07, N′1-{4-[(6-{5-[(4-{[1-(2,4-dihydroxy-5-isopropylphenyl)-N-methylformamido]methyl}phenyl)formamido]pentanamido}quinolin-4-yl)oxy]phenyl}-N1-(4-fluorophenyl)cyclopropane-1,1-dicarboxamide] | 1 (50% < degradation: 1) | 2 (10% < degradation < 50%: 2) | –
3 | 3.38 µM | 4.25 µM | – | – | CC(C)c1cc(C(=O)N(C)Cc2cccc(C(=O)NCCOCCOC(=O)Nc3ccc4nccc(Oc5ccc(NC(=O)C6(C(=O)Nc7ccc(F)cc7)CC6)cc5)c4c3)c2)c(O)cc1O [OZD-MET 06, 2-{2-[(3-{[1-(2,4-dihydroxy-5-isopropylphenyl)-N-methylformamido]methyl}phenyl)formamido]ethoxy}ethyl N-[4-(4-{1-[(4-fluorophenyl)carbamoyl]cyclopropanamido}phenoxy)quinolin-6-yl)carbamate] | 2 (10% < degradation < 50%: 2) | 2 (10% < degradation < 50%: 2) | –
4 | 3.08 µM | 4.34 µM | – | – | CC(C)c1cc(C(=O)N(C)Cc2cccc(C(=O)NCCOCCOC(=O)Nc3ccc(-c4cnc5ncc(Cc6ccc7ncccc7c6)n5n4)cc3F)c2)c(O)cc1O [OZD-MET 08, 2-{2-[(3-{[1-(2,4-dihydroxy-5-isopropylphenyl)-N-methylformamido]methyl}phenyl)formamido]ethoxy}ethyl N-{2-fluoro-4-[7-(quinolin-6-ylmethyl)imidazo[1,2-b][1,2,4]triazin-2-yl]phenyl}carbamate] | 1 (50% < degradation: 1) | 2 (10% < degradation < 50%: 2) | –
5 | – | – | 4.72 µM | 5.71 µM | 2,4-dihydroxy-N-({4-[(5-{4-[3-(1-{imidazole[1,2-a]pyridin-6-yl}ethyl)-[1,2,3]triazolo[4,5-b]pyrazin-5-yl]pyrazol-1-yl}-5-oxopentyl) carbamoyl]phenyl}methyl)-5-isopropyl-N-methylbenzamide [OZD-MET 05] | 2 (10% < degradation < 50%: 2) | 2 (10% < degradation < 50%: 2) | –
6 | 1.97 µM | 2.64 µM | – | – | CC(C)c1cc(C(=O)N(C)Cc2ccc(C(=O)NCCCCC(=O)N3CCC(n4cc(-c5cnc(N)c(O[C@@H](C)c6c(Cl)ccc(F)c6Cl)c5)cn4)CC3)cc2)c(O)cc1O (stereo in doubt) [OZD-MET 03, N-{[4-({5-[4-(4-{6-amino-5-[1-(2,6-dichloro-3-fluorophenyl)ethoxy]pyridine-3-yl}pyrazol-1-yl)piperidin-1-yl]-5-oxopentyl}carbamoyl)phenyl]methyl}-2,4-dihydroxy-5-isopropyl-N-methylbenzamide] | 1 (50% < degradation: 1) | 1 (50% < degradation: 1) | –
7 | 4.18 µM | 3.11 µM | – | – | CC(C)c1cc(C(=O)N(C)Cc2ccc(C(=O)NCCCCC(=O)Nc3ccc(-c4cnc5ncc(Cc6ccc7ncccc7c6)n5n4)cc3F)cc2)c(O)cc1O [OZD-MET 09, N-[(4-{[4-({2-fluoro-4-[7-(quinolin-6-ylmethyl)imidazo[1,2-b][1,2,4]triazin-2-yl]phenyl}carbamoyl)butyl]carbamoyl}phenyl)methyl]-2,4-dihydroxy-5-isopropyl-N-methyl-benzamide] | 2 (10% < degradation < 50%: 2) | 1 (50% < degradation: 1) | –
8 | – | – | – | – | CC(C)c1cc(C(=O)N(C)Cc2ccc(C(=O)O)cc2)c(O)cc1O [Compound (i), reference compound] | No degradation | No degradation | no degradation
9 | 3.07 µM | 3.5 µM | – | – | CC(C)c1cc(C(=O)N(C)Cc2cccc(C(=O)NCCOCCOC(=O)N3CCC(n4cc(-c5cnc(N)c(O[C@@H](C)c6c(Cl)ccc(F)c6Cl)c5)cn4)CC3)c2)c(O)cc1O (stereo in doubt) [OZD-MET 01, 2-{2-[(3-{[1-(2,4-dihydroxy-5-isopropylphenyl)-N-methylformamido]methyl}phenyl)formamido]ethoxy}ethyl 4-(4-{6-amino-5-[1-(2,6-dichloro-3-fluorophenyl)ethoxy]pyridin-3-yl}pyrazol-1-yl)piperidine-1-carboxylate] | 1 (50% < degradation: 1) | 1 (50% < degradation: 1) | –
10 | 3.99 µM | 3.44 µM | – | – | CC(C)c1cc(C(=O)N(C)Cc2ccc(C(=O)NCCCCC(=O)N3CCC(COc4cnc(-c5cccc(Cn6nc(-c7cccc(C#N)c7)ccc6=O)c5)nc4)CC3)cc2)c(O)cc1O [OZD-MET 11, N-{[4-({5-[4-({[2-(3-{[3-(3-cyanophenyl)-6-oxopyridazin-1-yl]methyl}phenyl)pyrimidin-5-yl]oxy}methyl)piperidin-1-yl]-5-oxopentyl}carbamoyl)phenyl]methyl}-2,4-dihydroxy-5-isopropyl-N-methylbenzamide] | 2 (10% < degradation < 50%: 2) | 1 (50% < degradation: 1) | –
11 | 4.18 µM | 4.65 µM | – | – | CC(C)c1cc(C(=O)N(C)Cc2cccc(C(=O)NCCOCCOC(=O)n3cc(-c4cnc5nnn([C@@H](C)c6ccc7nccn7c6)c5n4)cn3)c2)c(O)cc1O [OZD-MET 04, 2-{2-[(3-{[1-[2,4-dihydroxy-5-isopropylphenyl]-N-methylformamido]methyl}phenyl)formamido]ethoxy}ethyl 4-[3-(1-{imidazole[1,2-a]pyridin-6-yl}ethyl)-[1,2,3]triazolo[4,5-b]pyrazin-5-yl]pyrazole-1-carboxylate] | 2 (10% < degradation < 50%: 2) | 3 (degradation < 10%: 3) | –
12 | 3.19 µM | 3.29 µM | – | – | CC(C)c1cc(C(=O)N(C)Cc2cccc(C(=O)NCCOCCOC(=O)N3CCC(COc4cnc(-c5cccc(Cn6nc(-c7cccc(C#N)c7)ccc6=O)c5)nc4)CC3)c2)c(O)cc1O [OZD-MET 10, 2-{2-[(3-{[1-(2,4-dihydroxy-5-isopropylphenyl)-N-methylformamido]methyl}phenyl)formamido]ethoxy}ethyl 4-({[2-(3-{[3-(3-cyanophenyl)-6-oxopyridazin-1-yl]methyl}phenyl)pyrimidin-5-yl]oxy}methyl)piperidine-1-carboxylate] | 1 (50% < degradation: 1) | 1 (50% < degradation: 1) | –
13 | – | – | – | – | CC(C)c1cc(C(=O)N(C)Cc2cccc(C(=O)O)c2)c(O)cc1O [Compound (d), reference compound] | No degradation | No degradation | no degradation
14 | 20.3 µM | 31.9 µM | – | – | C[C@@H](Oc1cc(-c2cnn(C3CCNCC3)c2)cnc1N)c1c(Cl)ccc(F)c1Cl [Crizotinib, reference compound] | No degradation | – | no degradation
